For one series, the system named is tubulin. Briefly: HTS-Tubulin Polymerization Assay Kit, tubulin polymerization in vitro. As to conditions: 1 μM preparations, 10 μL added to 100 μL 4 mg/ml tubulin; 405 nm, 37° C.; compared with the PBS buffer. The class given is biochemical. How it is done:
According to the instruction of kit, pre-warm the 96-well plate to 37° C. for 30 min prior to starting the assay. At the same time, the spectrophotometer (SpectraMax, Molecular Devices, USA) was set as follow: wavelength, 405 nm; temperature, 37° C.; Kinetic, 31 cycles of 1 reading per minute. Make cold G-PEM buffer (990 μL General Tubulin Buffer+10 μL GTP Stock) and keep it on ice. […] Immediately place the plate into the spectrophotometer and start recording using the kinetic setup described above. […] Nocodazole, the tubulin polymerization inhibitor, was set as a negative control. The metabolite Cys-3AA-MDC was prepared by reaction of 3AA-MDC with cysteine under the base DIEA in CH2Cl2. LC-MS (M+H^+) calc.: 964.5. found: 964.2. Rt: 12.97 min. The metabolite Lys-MCC-MDC was prepared by reaction of SMCC-MDC with lysine under the base DIEA in DMF. LC-MS (M+H^+) calc.: 1103.7. found: 1103.2. Rt: 13.00 and 13.18 min.

The subject of a further series is Raji cells. The series can be described thus: Effect on the growth of Raji cells (CCK-8). As to conditions: 3 days.
Series [1] concerns EGFR positive tumor cell line A431. The series can be described thus: Growth inhibition, relative cell proliferation with CCK-8, A431. In kind it is cell-based, human. As to conditions: A431, 72 hours. As to the method:
Briefly, cells were detached by using 0.25% (vol/vol) trypsin and suspended in complete medium. Aliquots of cells were plated into 96-well microdilution plates. […] After 72 hours, plates were washed twice with PBS (pH 7.5), and analyzed for relative cell proliferation with CCK-8 reagent.

For series [2] the following is noted: versus methotrexate, daunorubicin, and vincristine; cited from earlier work.
In series [3] the test system is human acute lymphoblastic leukemia line C.E.M. As to conditions: cited from earlier work.

Experimental for Raji cells: Briefly, 10 thousands cells in 100 μL of DMEM:F12 (GBICO, CA) culture medium without serum were seeded into each well of a 96-well plate. Twice-fold serial dilutions of antibodies or conjugated form were prepared and each diluted antibodies were added in triplicate to the wells and the cultures were incubated at 37° C. for 3 days. The controls consisted of either medium alone or medium containing of Raji cell. After incubation, CCK-8 was added to each well and the absorbance at 450 nm of each well was determined in a Spectra Max spectrophotometer (Molecular Devices, Sunnyvale, Calif.).

On to `COc1cc2cc(c1Cl)N(C)C(=O)C[C@H](OC(=O)[C@H](C)N(C)C(=O)CCCCCN1C(=O)C=CC1=O)[C@]1(C)OC1[C@H](C)[C@@H]1C[C@@](O)(NC(=O)O1)[C@H](OC)/C=C/C=C(\C)C2` (stereo partly shown) [3AA-MDC, N2′-deacetyl-N2′-(6-maleimido-1-oxo-hexyl)maytansine], for which the “inhibition of tubulin polymerization” value with tubulin is on record as “significantly inhibited the tubulin polymerization”.
On to “Bat1206: monoclonal antibody (rituximab) binding the extracellular domain of CD20”, for which the “inhibition of CD20 positive cell growth” value with Raji cells is recorded as “inhibitory effects”. Moreover, the “inhibition of A431 cell proliferation” value in series [1] is reported as “had no effects on A431 cells”.
As to `COc1cc2cc(c1Cl)N(C)C(=O)C[C@H](OC(=O)[C@H](C)N(C)C(C)=O)[C@]1(C)O[C@H]1[C@H](C)[C@@H]1C[C@@](O)(NC(=O)O1)[C@H](OC)/C=C/C=C(\C)C2` [Maytansine], the “fold more cytotoxic than conventional chemotherapeutic agents” value in series [2] was 100- to 1000 fold. The “concentration inhibiting C.E.M. line (as low as)” value in series [3] is given as 10^−7 μg/mL.
With `COc1cc2cc(c1Cl)N(C)C(=O)C[C@H](OC(=O)[C@H](C)N(C)C(=O)CCSC1CC(=O)N(CC3CCC(C(=O)NCCCC[C@H](N)C(=O)O)CC3)C1=O)[C@]1(C)O[C@H]1[C@H](C)[C@@H]1C[C@@](O)(NC(=O)O1)[C@H](OC)/C=C/C=C(\C)C2` (stereo partly shown) [Lys-mcc-MDC], the “inhibition of tubulin polymerization” value with tubulin was “significantly inhibited the tubulin polymerization”.
On the same count and under the same terms, the value for `CN[C@@H](C)C(=O)OC1CC(=O)N(C)c2cc(cc(OC)c2Cl)C/C(C)=C/C=C/C(OC)C2(O)CC(OC(=O)N2)C(C)C2OC12C` (stereo partly shown) [Cys-3AA-MDC] was “significantly inhibited the tubulin polymerization”.

The record behind these values is patent publication US8877706B2, “Maytansinoid derivatives” (Bio-Thera Solutions, Ltd., Co., priority 2012, dated 2014).
